Read-outs that look alike come from different tables or passages of the source. Each block holds one molecule with its values, some of them ahead of it.
Experiments:
[1] = target: T1, HEPM cell-surface receptors for TGF-β (Homo sapiens, UniProt Q03167); assay: Radioreceptor assay: [125I]-iodo-TGF-β1 in competition with unlabeled TGF-β1, Scatchard analysis; assay type: binding; details: untreated HEPM cells, Scatchard two-site model
T1 construct: endogenous in cells; host or cells: HEPM (human embryonic palatal mesenchyme) cells, intact monolayers
T1 sequence (Q03167 21-851): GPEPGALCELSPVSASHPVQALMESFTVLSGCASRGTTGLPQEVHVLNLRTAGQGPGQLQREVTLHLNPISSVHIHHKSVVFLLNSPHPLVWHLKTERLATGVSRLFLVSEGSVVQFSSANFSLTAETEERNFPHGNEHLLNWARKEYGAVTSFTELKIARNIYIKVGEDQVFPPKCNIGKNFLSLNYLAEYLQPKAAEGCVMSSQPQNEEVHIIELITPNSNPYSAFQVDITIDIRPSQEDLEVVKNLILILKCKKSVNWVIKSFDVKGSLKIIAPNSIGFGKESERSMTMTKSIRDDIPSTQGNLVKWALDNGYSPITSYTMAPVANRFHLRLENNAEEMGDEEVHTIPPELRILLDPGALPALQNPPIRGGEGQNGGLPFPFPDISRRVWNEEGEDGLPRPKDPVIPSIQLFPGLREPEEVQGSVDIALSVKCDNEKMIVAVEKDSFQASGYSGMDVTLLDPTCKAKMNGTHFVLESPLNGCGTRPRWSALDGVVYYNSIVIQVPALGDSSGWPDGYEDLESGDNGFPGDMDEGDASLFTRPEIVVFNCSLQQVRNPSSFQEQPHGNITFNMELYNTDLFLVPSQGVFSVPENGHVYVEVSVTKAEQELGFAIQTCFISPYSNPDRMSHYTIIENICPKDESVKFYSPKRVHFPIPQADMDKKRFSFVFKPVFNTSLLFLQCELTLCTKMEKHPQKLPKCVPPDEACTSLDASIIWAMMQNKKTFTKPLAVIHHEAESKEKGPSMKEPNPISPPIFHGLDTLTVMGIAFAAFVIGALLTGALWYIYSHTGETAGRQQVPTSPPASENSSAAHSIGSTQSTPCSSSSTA
Protocol: (§1) HEPM cells were grown to confluence (1×10^5 cells/well) in 24-well Costar tissue culture plates. Prior to the binding assay, cells were pre-incubated in serum-free growth medium at 37° C. for 4 hours to allow for the dissociation of TGF-β from occupied cells surface receptors. The resulting monolayers were washed 2 times in binding buffer (Dulbecco's MEM+0.1% BSA+25 mM HEPES). 250 μl of binding buffer containing 0.5 μg/ml [^125 I]-iodoTGF-β1, (specific activity of 100 μCi/μg) together with increasing amounts of unlabeled TGF-β1 were added to duplicate wells. Steady state binding was carried out at 4° C. for 3 hours. After incubation cells were washed 3 times with cold binding buffer and solubilized in 200 μl of Triton solution (20 mM HEPES, 1% Triton X-100, 10% glycerol, 0.01% BSA, pH 7.4). Radioactivity was determined using a gamma spectrometer. Non-specific binding was determined in the presence of a 1,000-fold molar excess unlabeled TGF-β1.
(§2) The radioreceptor assay described in Materials and Methods was used to characterize the affinity and number of cell-surface receptors for TGF-β on HEPM cells. Specific binding of [^125 I]-iodo-TGF-βin these assays was 20% of the total radioligand present. […] Half-maximal displacement of radioligand occurred at 100 pM (2.6 ng/ml) unlabeled TGF-β1. Competitive binding data were plotted according to the method of Scatchard (Scatchard, et al., 1947, Ann. NY Acad Sci 51:660-672) and the results are presented in FIG. 5. A distinctly curvilinear isotherm was obtained indicating the presence of at least two classes of binding sites on HEPM cells. […] Quantitative analysis determined that HEPM cells contain a total of 287,000 TGF-β receptors per cell (55,400 high affinity and 231,600 low affinity sites).

[2] = system: HEPM cell-surface receptors for TGF-β; assay: as above; assay type: binding, human; details: comparison of growth stimulation and receptor binding, FIG. 6
Protocol: as §1, §2

HEPM cells [3] = assay: Co-stimulation with EGF assay (radionuclide incorporation into DNA); assay type: cell-based, human
Protocol: Quiescent HEPM cells were stimulated to proliferate by the addition of fetal bovine serum (15 μ) and test samples of TGF-β2 (50 μl) and/or EGF (50 μl), resulting in a total assay volume of 165 μl. The amount of cell growth was measured by the amount of radionuclide incorporated into the DNA of actively growing cells.
The response of HEPM cells to TGF-β treatment in the presence of EGF was determined by radiolabeling the DNA of dividing cells as described in Materials and Methods. A suboptimal dose of TGF-β2 was analyzed for growth stimulatory activity in the presence of EGF. […] HEPM cells treated with both EGF and TGF-β2 at the same doses gave a 511% stimulation, a potentiated response of 340% over that expected from the sum of the two individual responses.

HEPM cells [4] = assay: Growth stimulation assay: incorporation of 5-[125I]iodo-2'-deoxyuridine into DNA of quiescent HEPM cells; assay type: cell-based, human; details: 66 h + 6 h radionuclide label
Protocol: FIGS. 1(A) and 1(B) Bioactivity of TGF-β on HEPM cells: incorporation of radionuclide into DNA. Results are presented as percent stimulation vs the picomolar (pM) concentration of TGF-β. Percent stimulation was calculated as follows: treated (cpm)-untreated (cpm)/untreated (cpm) x 100. Panel A: TGF-β1, treatment. Panel B: TGF-β2 treatment.
HEPM cells (5,000 cells/50 μl ) were subcultured in 96-well tissue culture plates (Falcon 30072) in growth medium comprising minimal essential medium (Gibco, Grand Island, N.Y.) supplemented with 10% heat-inactivated fetal bovine serum, 600 μg/ml L-glutamine, 500 μg/ml penicillin and 500 μg/ml streptomycin for a 24-hour period at 37° C. in a humidified 5% CO2 /95% air atosphere. A nondividing, quiescent state of growth was achieved by subsequent incubation for 48 hours in growth medium supplemented with 0.5% fetal bovine serum. Quiescent cells were then stimulated to proliferate by the addition of fetal bovine serum (10 μl ) and test samples of TGF-β1, or TGF-β2 (50 μl). The cells were incubated an additional 66 hours at 37° C. […] The amount of cell growth was measured by the amount of radionuclide incorporated into the DNA of actively growing cells.

TGF-β = target: T2, TGF-β (Homo sapiens, UniProt P01137); assay: Affinity labeling of purified soluble receptor with [125I]-iodo-TGF-β, DSS cross-linking, SDS-PAGE; assay type: binding; details: [125I]-iodo-TGF-β with or without 1,000 ng/ml unlabeled TGF-β
T2 construct: endogenous in cells; host or cells: HEPM cells
T2 sequence (P01137 279-390): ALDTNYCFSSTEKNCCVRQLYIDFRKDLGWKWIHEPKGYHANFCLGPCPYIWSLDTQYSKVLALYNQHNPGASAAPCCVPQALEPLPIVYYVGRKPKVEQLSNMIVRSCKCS
Protocol: FIG. 10 Ability of purified TGF-β receptor to bind TGF-β. Affinity purified receptor preparations were crosslinked to bound [^125 I]-iodo-TGF-β with DSS and analyzed on SDS-PAGE. Lanes marked (-) contained only [^125 I]-iodo-TGF-β; lanes marked (+) contained [^125 I]-iodo-TGF-β in the presence of 1,000 ng/ml unlabeled TGF-β. The 240 Kd band is specifically labeled with radioligand and has the same mobility on SDS-PAGE as the receptor-TGF-β complex from cell surface membranes (see FIG. 7).
Solubilized receptor samples (50 μl) were diluted with three volumes of binding buffer containing 0.5% v/v Triton X-100 and 50 ng/ml [^125 I]-iodo-TGF-β. The samples were incubated at 4° C. for 3 hours in the presence or absence of 1,000 ng/ml unlabeled TGF-β. Four microliters (4 μl) of 10 mM DSS in DMSO were then added. After 15 minutes the unreacted DSS was quenched by adding 20 μl of 100 mM Tris/HCl pH 7.0.
Affinity-labeled samples were incubated at 4° C. for 2 hours with 15 μl of packed WGA-sepharose beads (wheat germ aglutinin-sepharose, Sigma) with end-over-end mixing. The beads were sedimented by centrifugation at 12,000 xg for 1 minute and washed three times with a buffer solution containing 0.5% v/v Triton X-100, 10 mM Tris/HCl, mM EDTA. The washed, packed beads were heated for 5 minutes at 95° C. in the presence of 20 μl of electrophoresis sample buffer containing 5% 2-mercaptoethanol. […]

Kd ([1]; read-out: kd, high-affinity (low capacity) site): 0.058 nM | Kd ([1]; read-out: kd, low-affinity (high capacity) site): 0.898 nM
Molecule: TGF-β: Transforming growth factor-Beta, type not named at the place; the underlying radioreceptor and FIG. 6 data were obtained with TGF-β1
concentration to occupy all TGF-β receptor sites relative to concentration for maximal growth stimulatory response [2]: about 20 times

Molecule: EGF: epidermal growth factor [reference compound]
percent stimulation (HEPM cells [3]; 13 ng/ml EGF alone): 21%

Molecule: TGF-β2: polypeptide of molecular weight 26,000 composed of two identical 13,000 dalton subunits which are disulfide linked
percent stimulation (HEPM cells [3]; 0.3 ng/ml TGF-β2 alone (suboptimal dose)): 150% | ED50 in stimulating the proliferation of HEPM cells (half-maximal growth stimulation) (HEPM cells [4]): 0.0023 nM

ability of purified receptor to bind TGF-β (TGF-β): specifically bind TGF-β
B1: affinity purified receptor: type III TGF-β receptor affinity purified from HEPM cells, about 200-206 kd, N-terminus Lys-Tyr-Tyr-Asp-Lys-Asp-Tyr (protein, UniProt Q03167 21-851, looked up)
Transforming growth factor …: GPEPGALCELSPVSASHPVQALMESFTVLSGCASRGTTGLPQEVHVLNLRTAGQGPGQLQREVTLHLNPISSVHIHHKSVVFLLNSPHPLVWHLKTERLATGVSRLFLVSEGSVVQFSSANFSLTAETEERNFPHGNEHLLNWARKEYGAVTSFTELKIARNIYIKVGEDQVFPPKCNIGKNFLSLNYLAEYLQPKAAEGCVMSSQPQNEEVHIIELITPNSNPYSAFQVDITIDIRPSQEDLEVVKNLILILKCKKSVNWVIKSFDVKGSLKIIAPNSIGFGKESERSMTMTKSIRDDIPSTQGNLVKWALDNGYSPITSYTMAPVANRFHLRLENNAEEMGDEEVHTIPPELRILLDPGALPALQNPPIRGGEGQNGGLPFPFPDISRRVWNEEGEDGLPRPKDPVIPSIQLFPGLREPEEVQGSVDIALSVKCDNEKMIVAVEKDSFQASGYSGMDVTLLDPTCKAKMNGTHFVLESPLNGCGTRPRWSALDGVVYYNSIVIQVPALGDSSGWPDGYEDLESGDNGFPGDMDEGDASLFTRPEIVVFNCSLQQVRNPSSFQEQPHGNITFNMELYNTDLFLVPSQGVFSVPENGHVYVEVSVTKAEQELGFAIQTCFISPYSNPDRMSHYTIIENICPKDESVKFYSPKRVHFPIPQADMDKKRFSFVFKPVFNTSLLFLQCELTLCTKMEKHPQKLPKCVPPDEACTSLDASIIWAMMQNKKTFTKPLAVIHHEAESKEKGPSMKEPNPISPPIFHGLDTLTVMGIAFAAFVIGALLTGALWYIYSHTGETAGRQQVPTSPPASENSSAAHSIGSTQSTPCSSSSTA
